Where two headings read alike, the source gives them in different places.
Columns and labels:
Assay type in all cases: cell-based, human
[1] = test system: p-ERK in AsPC-1 cells (KRAS G12D mutation); experiment: Cell p-ERK assay (HTRF) in AsPC-1 cells; conditions: AsPC-1 cells, 3 h compound incubation, HTRF p-ERK T202/Y204, read-out: AsPC-1 p-ERK IC50
How it was run: (§1)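 Cells are plated (AsPC-1 at 10000, NCI-H441 at 20000 per well) and cultured overnight. Next day compound is added in a 3.16-fold dilution series with 0.1% DMSO and left 3 h. After lysis, p-ERK antibodies incubate 4 h before HTRF reading and four-parameter IC50 fitting.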

[2] = test system: AsPC-1 cells (KRAS G12D mutation); experiment: 3D cell proliferation assay (CellTiter Glo-3D), AsPC-1; conditions: medium with 2% FBS, read-out: AsPC-1 AP IC50
How it was run: (§2)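 Luminescence read-out (CellTiter-Glo 3D) after 5-day compound exposure at 37 °C, 5% CO2. Cells: NCI-H441 and AsPC-1, 800/well, RPMI-1640 + 2% FBS, 0.1% DMSO final. IC50 by four-parameter fit of % inhibition against log concentration.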

[3] = test system: p-ERK in NCI-H441 cells (KRAS G12V mutation); experiment: Cell p-ERK assay (HTRF) in NCI-H441 cells; conditions: NCI-H441 cells, 3 h compound incubation, HTRF p-ERK T202/Y204, read-out: H441 p-ERK IC50
How it was run: as §1

[4] = test system: NCI-H441 cells; experiment: 3D cell proliferation assay (CellTiter Glo-3D), NCI-H441; conditions: medium with 2% FBS, read-out: H441 AP IC50
How it was run: as §2

[5] = 3D cell proliferation (CellTiter Glo-3D)
[6] = Homo sapiens, ASPC1, 3D cell proliferation (CellTiter Glo-3D)
[7] = Homo sapiens, NCI-H441, 3D cell proliferation (CellTiter Glo-3D)

SMILES	IC50 [1] [nM]	IC50 [2, 5] [nM]	IC50 [3] [nM]	IC50 [4, 5] [nM]	IC50 ([1]; Homo sapiens, ASPC1, 3 h) [nM]	IC50 [2, 6] [nM]	IC50 ([3]; Homo sapiens, NCI-H441, 3 h) [nM]	IC50 [4, 7] [nM]
CCn1c(-c2cc(C#C[C@@H]3CCCN3C)cnc2[C@H](C)OC)c2c3cc(ccc31)-c1csc(n1)C[C@H](NC(=O)[C@H]1[C@H](C)[C@@H]1C)C(=O)N1CCC[C@H](N1)C(=O)OCC(C)(C)C2 (atropisomer, axis not shown; (Ra)) [Compound Z598, (1r,2R,3S)—N-((6^3S,4S,Z)—(Ra)-1^1-ethyl-12-(2-((S)-1-methoxyethyl)-5-(((S)-1-methylpyrrolidin-2-yl)ethynyl)pyridin-3-yl)-10,10-dimethyl-5,7-dioxo-6^1,6^2,6^3,6^4,6^5,6^6-hexahydro-1^1H-8-oxa-2(4,2)-thiazola-1(5,3)-indola-6(1,3)-pyridazinacycloundecaphane-4-yl)-2,3-dimethylcyclopropane-1-carboxamide]	0.8	0.62	0.58	0.65	–	–	–	–
CCn1c(-c2cc(C#C[C@H]3CCCN3C)cnc2[C@H](C)OC)c2c3cc(ccc31)-c1csc(n1)C[C@H](NC(=O)[C@H]1[C@H](C)[C@@H]1C)C(=O)N1CCC[C@H](N1)C(=O)OCC(C)(C)C2 (atropisomer, axis not shown; (Ra)) [Compound Z599, (1r,2S,3R)—N-((6^3S,4S,Z)—(Ra)-1^2-(5-(((R)-1-methylpyrrolidin-2-yl)ethynyl)-2-((S)-1-methoxyethyl)pyridin-3-yl)-1^1-ethyl-10,10-dimethyl-5,7-dioxo-6^1,6^2,6^3,6^4,6^5,6^6-hexahydro-1^1H-8-oxa-2(4,2)-thiazola-1(5,3)-indola-6(1,3)-pyridazinacycloundecaphane-4-yl)-2,3-dimethylcyclopropane-1-carboxamide]	–	–	–	–	1.05	2.15	0.7	1.17
CCn1c(-c2cc(OCCN3CC[S+]([O-])CC3)cnc2[C@H](C)OC)c2c3cc(ccc31)-c1csc(n1)C[C@H](NC(=O)[C@H]1[C@H](C)[C@@H]1C)C(=O)N1CCC[C@H](N1)C(=O)OCC(C)(C)C2 (atropisomer, axis not shown; (Ra)) [Compound Z600]	–	–	0.51	0.36	0.51	0.66	–	–
CCn1c(-c2cc(OCCN3CCS(=O)(=NC)CC3)cnc2[C@H](C)OC)c2c3cc(ccc31)-c1csc(n1)C[C@H](NC(=O)[C@H]1[C@H](C)[C@@H]1C)C(=O)N1CCC[C@H](N1)C(=O)OCC(C)(C)C2 (atropisomer, axis not shown; (Ra)) [Compound Z601, (1r,2R,3S)—N-((6^3S,4S,Z)-1^1-ethyl-1^2-(Ra)-(2-((S)-1-methoxyethyl)-5-(2-(1-(methylimino)-1-oxido-1λ^6-thiomorpholino)ethoxy)pyridin-3-yl)-10-10-dimethyl-5,7-dioxo-6^1,6^2,6^3,6^4,6^5,6^6-hexahydro-1^1H-8-oxa-2(4,2)-thiazola-1(5,3)-indola-6(1,3)-pyridazinacycloundecaphane-4-yl)-2,3-dimethylcyclopropane-1-carboxamide]	–	–	–	–	0.49	0.58	0.62	0.36
CO[C@@H](C)c1ncc(OCCN2CCS(=O)(=O)CC2)cc1-c1c2c3cc(ccc3n1C(C)C)-c1csc(n1)C[C@H](NC(=O)[C@H]1C[C@@H]1C)C(=O)N1CCC[C@H](N1)C(=O)OCC(C)(C)C2 (atropisomer, axis not shown; (Ra)) [Compound Z603, (1S,2S)—N-((6^3S,4S,Z)—(Ra)-1^2-(5-(2-(1,l-dioxidothiomorpholino)ethoxy)2-((S)-1-methoxyethyl)pyridin-3-yl)-1^1-isopropyl-10,10-dimethyl-5,7-dioxo-6^1,6^2,6^3,6^4,6^5,6^6-hexahydro-1^1H-8-oxa-2(4,2)-thiazola-1(5,3)-indola-6(1,3)-pyridazinacycloundecaphane-4-yl)-2-methylcyclopropane-1-carboxamide]	–	–	–	–	0.6	0.89	0.22	0.31
CCn1c(-c2cc(OCCN3CCS(=O)(=O)CC3)cnc2[C@H](C)OC)c2c3cc(ccc31)-c1csc(n1)C[C@H](NC(=O)[C@H]1C[C@@H]1C)C(=O)N1CCC[C@H](N1)C(=O)OCC(C)(C)C2 (atropisomer, axis not shown; (Ra)) [Compound Z605]	0.6	0.5	0.3	0.26	–	–	–	–
CC[C@H](C)C(=O)N[C@H]1Cc2nc(cs2)-c2ccc3c(c2)c(c(-c2cc(OCCN4CCS(=O)(=O)CC4)cnc2[C@H](C)OC)n3CC)CC(C)(C)COC(=O)[C@@H]2CCCN(N2)C1=O (atropisomer, axis not shown; (Ra)) [Compound Z609, (2S)—N-((6^3S,4S,Z)—(Ra)-1^2-(5-(2-(1,1-dioxidothiomorpholino)ethoxy)-2-((S)-1-methoxyethyl)pyridin-3-yl)-1^1-ethyl-10,10-dimethyl-5,7-dioxo-6^1,6^2,6^3,6^4,6^5,6^6-hexahydro-1^1H-8-oxa-2(4,2)-thiazola-1(5,3)-indola-6(1,3)-pyridazinacycloundecaphane-4-yl)-2-methylbutanamide]	–	–	–	–	0.76	0.79	0.76	0.22
CC[C@@H](C)C(=O)N[C@H]1Cc2nc(cs2)-c2ccc3c(c2)c(c(-c2cc(OCCN4CCS(=O)(=O)CC4)cnc2[C@H](C)OC)n3CC)CC(C)(C)COC(=O)[C@@H]2CCCN(N2)C1=O (atropisomer, axis not shown; (Ra)) [Compound Z610, (2R)—N-((6^3S,4S,Z)—(Ra)-1^2-(5-(2-(1,1-dioxidothiomorpholino)ethoxy)-2-((S)-1-methoxyethyl)pyridin-3-yl)-1^1-ethyl-10,10-dimethyl-5,7-dioxo-6^1,6^2,6^3,6^4,6^5,6^6-hexahydro-1^1H-8-oxa-2(4,2)-thiazola-1(5,3)-indola-6(1,3)-pyridazinacycloundecaphane-4-yl)-2-methylbutanamide]	–	–	–	–	0.71	1.37	0.57	0.32
CCn1c(-c2cc(OCC3(N4CCS(=O)(=O)CC4)CC3)cnc2[C@H](C)OC)c2c3cc(ccc31)-c1csc(n1)C[C@H](NC(=O)[C@H]1[C@H](C)[C@@H]1C)C(=O)N1CCC[C@H](N1)C(=O)OCC(C)(C)C2 (atropisomer, axis not shown; (Ra)) [Compound Z614, (1r,2R,3S)—N-((6^3S,4S,Z)-1^2-(5-((1-(1,1-dioxidothiomorpholino)cyclopropyl)methoxy)-2-((S)-1-methoxyethyl)pyridin-3-yl)-1^1-ethyl-(Ra)-10,10-dimethyl-5,7-dioxo-6^1,6^2,6^3,6^4,6^5,6^6-hexahydro-1^1hydrogen-8-oxa-2(4,2)-thiazola-1(5,3)-indola-6(1,3)-pyridazinacycloundecaphane-4-yl)-2,3-dimethylcyclopropane-1-carboxamide]	–	–	–	–	0.09	0.11	0.23	0.15
